Assay results reported in the NIST ThermoML archive (doi:10.1016/j.fluid.2013.01.003).
± gives the expanded uncertainty stated by the source.

Conditions: 101.33 kPa, Liquid; for electrical conductivity: Alternating current cell with electrodes; for viscosity: Falling or rolling sphere viscometry; for mass density: Vibrating tube method

SMILES: O=S(=O)([N-]S(=O)(=O)C(F)(F)F)C(F)(F)F.OCC[n+]1ccccc1
- electrical conductivity (273.15 K): 0.0435 ± 0.04 S/m
- viscosity (273.15 K): 645 ± 56 mPa·s
- mass density (273.15 K): 1614.7 ± 0.8 kg/m3
- electrical conductivity (278.15 K): 0.0655 ± 0.04 S/m
- viscosity (278.15 K): 421.9 ± 30 mPa·s
- mass density (278.15 K): 1609.2 ± 0.8 kg/m3
- electrical conductivity (283.15 K): 0.0945 ± 0.04 S/m
- viscosity (283.15 K): 285.8 ± 17 mPa·s
- mass density (283.15 K): 1604 ± 0.8 kg/m3
- electrical conductivity (288.15 K): 0.132 ± 0.04 S/m
- viscosity (288.15 K): 200.9 ± 9.5 mPa·s
- mass density (288.15 K): 1599.44 ± 0.78 kg/m3
- electrical conductivity (293.15 K): 0.178 ± 0.04 S/m
- viscosity (293.15 K): 145.7 ± 5.3 mPa·s
- mass density (293.15 K): 1594.47 ± 0.77 kg/m3
- electrical conductivity (298.15 K): 0.233 ± 0.04 S/m
- viscosity (298.15 K): 108.7 ± 2.9 mPa·s
- mass density (298.15 K): 1589.51 ± 0.77 kg/m3
- electrical conductivity (303.15 K): 0.299 ± 0.04 S/m
- viscosity (303.15 K): 83.19 ± 1.5 mPa·s
- mass density (303.15 K): 1584.59 ± 0.76 kg/m3
- electrical conductivity (313.15 K): 0.461 ± 0.04 S/m
- viscosity (313.15 K): 52.03 ± 0.28 mPa·s
- mass density (313.15 K): 1574.82 ± 0.75 kg/m3
- electrical conductivity (323.15 K): 0.668 ± 0.04 S/m
- viscosity (323.15 K): 34.91 ± 0.32 mPa·s
- mass density (323.15 K): 1565.16 ± 0.74 kg/m3
- electrical conductivity (333.15 K): 0.912 ± 0.04 S/m
- viscosity (333.15 K): 24.77 ± 0.23 mPa·s
- mass density (333.15 K): 1555.59 ± 0.73 kg/m3
- electrical conductivity (343.15 K): 1.2 ± 0.04 S/m
- viscosity (343.15 K): 18.37 ± 0.17 mPa·s
- mass density (343.15 K): 1546.08 ± 0.72 kg/m3
- electrical conductivity (353.15 K): 1.52 ± 0.04 S/m
- viscosity (353.15 K): 14.12 ± 0.13 mPa·s
- mass density (353.15 K): 1536.66 ± 0.71 kg/m3
- viscosity (363.15 K): 11.18 ± 0.11 mPa·s
- mass density (363.15 K): 1527.29 ± 0.7 kg/m3
